Experiment [1] deals with Serine/threonine-protein kinase Chk2 (Homo sapiens, UniProt O96017). The experiment is described as follows: In vitro inhibitory concentration against checkpoint kinase 2 (Chk2) by using [gamma-33P]-ATP] as radioligand.
Experiment [2] concerns the target Casein kinase I isoform delta (Homo sapiens, UniProt P48730). The experiment is described as follows: In vitro inhibitory concentration against human casein kinase 1 delta (CK1 delta) by using [gamma-33P]-ATP] as radioligand.
Experiment [3] has as its target Protein kinase C alpha type (Homo sapiens, UniProt P17252). The experiment is described as follows: In vitro inhibitory concentration against human protein kinase C alpha (PKCa) by using [gamma-33P]-ATP] as radioligand.
For experiment [4], the target named is T1, Serine/threonine-protein kinase Chk1 (Homo sapiens, UniProt O14757).
T1 sequence (O14757 whole entry): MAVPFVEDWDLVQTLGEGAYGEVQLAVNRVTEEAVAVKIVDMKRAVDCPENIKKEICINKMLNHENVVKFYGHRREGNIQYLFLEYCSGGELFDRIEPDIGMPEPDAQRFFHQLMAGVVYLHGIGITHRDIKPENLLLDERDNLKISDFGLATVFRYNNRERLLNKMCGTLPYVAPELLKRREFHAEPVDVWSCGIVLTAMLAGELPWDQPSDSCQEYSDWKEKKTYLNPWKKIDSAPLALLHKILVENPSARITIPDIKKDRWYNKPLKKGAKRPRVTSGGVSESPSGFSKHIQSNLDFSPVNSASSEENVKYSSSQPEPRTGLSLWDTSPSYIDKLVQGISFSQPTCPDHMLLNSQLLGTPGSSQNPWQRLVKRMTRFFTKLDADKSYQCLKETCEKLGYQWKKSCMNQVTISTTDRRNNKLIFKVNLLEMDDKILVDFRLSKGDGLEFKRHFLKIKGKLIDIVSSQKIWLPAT
Nature of the experiment: In vitro inhibitory concentration against checkpoint kinase 1 (Chk1) by using [gamma-33P]-ATP] as radioligand.

In experiment [5] the target is Casein kinase II subunit alpha (Homo sapiens, UniProt P68400). The experiment is described as follows: In vitro inhibitory concentration against human casein kinase 2 (CK2) by using [gamma-33P]-ATP] as radioligand.
For experiment [6], the target named is Protein kinase C beta type (Homo sapiens, UniProt P05771). The experiment is described as follows: In vitro inhibitory concentration against human protein kinase C beta-2 (PKCbetaII) by using [gamma-33P]-ATP] as radioligand.

In ChEMBL document CHEMBL1137167, “Potent inhibition of checkpoint kinase activity by a hymenialdisine-derived indoloazepine” (Bioorg Med Chem Lett, 2004) one finds IC50 data, which are given here for 3 compounds.

Molecules are shown by their SMILES. pIC50: −log10 of the molar value.

Sequence of Serine/threonine-protein kinase Chk2 (O96017 whole entry, canonical isoform): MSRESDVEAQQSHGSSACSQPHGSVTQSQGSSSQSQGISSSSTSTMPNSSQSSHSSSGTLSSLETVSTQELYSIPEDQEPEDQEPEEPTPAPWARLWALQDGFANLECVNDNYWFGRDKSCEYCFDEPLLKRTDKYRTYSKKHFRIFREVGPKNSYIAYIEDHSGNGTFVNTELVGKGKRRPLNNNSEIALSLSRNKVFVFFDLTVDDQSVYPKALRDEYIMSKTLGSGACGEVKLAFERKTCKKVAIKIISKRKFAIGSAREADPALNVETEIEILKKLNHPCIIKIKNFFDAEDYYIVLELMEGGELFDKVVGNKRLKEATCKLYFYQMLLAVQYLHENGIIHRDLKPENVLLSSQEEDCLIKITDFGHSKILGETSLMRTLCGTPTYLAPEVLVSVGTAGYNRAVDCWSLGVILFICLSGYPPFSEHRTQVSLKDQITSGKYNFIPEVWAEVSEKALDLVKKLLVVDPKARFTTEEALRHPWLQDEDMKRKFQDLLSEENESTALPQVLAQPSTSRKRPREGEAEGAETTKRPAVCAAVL
Sequence of Casein kinase I isoform delta (P48730 whole entry, canonical isoform): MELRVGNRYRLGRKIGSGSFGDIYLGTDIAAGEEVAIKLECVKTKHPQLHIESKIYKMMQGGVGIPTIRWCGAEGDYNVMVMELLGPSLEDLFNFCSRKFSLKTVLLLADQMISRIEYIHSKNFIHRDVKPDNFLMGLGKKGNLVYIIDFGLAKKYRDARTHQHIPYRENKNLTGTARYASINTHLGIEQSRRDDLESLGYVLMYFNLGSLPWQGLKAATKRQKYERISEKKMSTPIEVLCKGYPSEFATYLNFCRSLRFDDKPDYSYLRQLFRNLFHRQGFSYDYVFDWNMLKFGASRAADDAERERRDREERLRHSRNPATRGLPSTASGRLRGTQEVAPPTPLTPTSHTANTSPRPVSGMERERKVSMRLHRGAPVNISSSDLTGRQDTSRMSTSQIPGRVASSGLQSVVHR
Sequence of Casein kinase II subunit alpha (P68400 whole entry): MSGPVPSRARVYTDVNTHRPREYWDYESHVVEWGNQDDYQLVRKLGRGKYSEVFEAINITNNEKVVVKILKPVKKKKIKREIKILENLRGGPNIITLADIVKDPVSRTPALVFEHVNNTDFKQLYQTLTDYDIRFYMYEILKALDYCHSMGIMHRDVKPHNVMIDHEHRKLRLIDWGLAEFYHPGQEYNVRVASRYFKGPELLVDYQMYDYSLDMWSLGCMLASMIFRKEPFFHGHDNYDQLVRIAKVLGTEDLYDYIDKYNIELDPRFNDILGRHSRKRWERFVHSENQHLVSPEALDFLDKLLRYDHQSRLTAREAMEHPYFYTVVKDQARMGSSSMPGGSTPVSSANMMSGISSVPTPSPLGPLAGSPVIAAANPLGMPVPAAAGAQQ
Sequence of Protein kinase C beta type (P05771 whole entry): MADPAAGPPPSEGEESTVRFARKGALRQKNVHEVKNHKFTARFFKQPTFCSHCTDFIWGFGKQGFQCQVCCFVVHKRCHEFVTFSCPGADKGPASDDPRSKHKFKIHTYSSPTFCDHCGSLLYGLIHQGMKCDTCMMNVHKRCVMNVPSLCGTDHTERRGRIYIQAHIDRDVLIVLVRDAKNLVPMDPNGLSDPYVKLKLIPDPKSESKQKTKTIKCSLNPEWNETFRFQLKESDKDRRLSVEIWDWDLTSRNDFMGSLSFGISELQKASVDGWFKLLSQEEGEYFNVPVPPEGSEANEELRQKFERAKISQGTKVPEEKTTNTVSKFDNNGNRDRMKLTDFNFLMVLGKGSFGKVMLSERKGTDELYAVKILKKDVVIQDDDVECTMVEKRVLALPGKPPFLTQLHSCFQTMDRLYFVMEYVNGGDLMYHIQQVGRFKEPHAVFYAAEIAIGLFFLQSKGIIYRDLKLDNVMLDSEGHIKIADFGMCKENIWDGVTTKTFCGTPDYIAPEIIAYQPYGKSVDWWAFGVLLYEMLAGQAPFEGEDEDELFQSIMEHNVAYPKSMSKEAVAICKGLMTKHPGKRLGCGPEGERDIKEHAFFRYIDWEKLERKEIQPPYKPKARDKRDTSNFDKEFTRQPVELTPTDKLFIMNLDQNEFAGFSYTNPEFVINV

Consider `Nc1nc(C2=C3C(=Nc4ccccc43)C(=O)NCC2)c(O)[nH]1`, for which the pIC50 in experiment [1] was 8.10; in experiment [2], 5.87; in experiment [3], 5.60; in experiment [4], 6.63; in experiment [5], under 5.00; in experiment [6], 5.47.
In the case of `NC1=N/C(=C2/CCNC(=O)c3[nH]ccc32)C(=O)N1` [DEBROMOHYMENIALDISINE], the pIC50 in experiment [1] is 6.74; in experiment [4], 6.14.
For `NC1=NC(=O)/C(=C2\CCNC(=O)c3[nH]c(Br)cc32)N1` [HYMENIALDISINE], the pIC50 in experiment [1] is 7.38; in experiment [2], 7.46; in experiment [4] it was 5.71; in experiment [5], 5.15.

The pIC50 is the IC50 on a negative log10 scale, so that one unit is a factor of ten. Read a low pIC50 as a large IC50.
